From ChEMBL document CHEMBL1134755, “B-ring substituted 5,7-dihydroxyflavonols with high-affinity binding to P-glycoprotein responsible for cell multidrug resistance” (Bioorg Med Chem Lett, 2001)
Each block holds one compound with its values, some of them ahead of it.

Tests used:
[1] = molecular target: T1, ATP-dependent translocase ABCB1 (Mus musculus, UniProt P21447); experiment: Binding affinity to nucleotide-binding domain (NBD2) of P-Glycoprotein
[2] = molecular target: T1, ATP-dependent translocase ABCB1; experiment: Percent of maximal quenching fluorescence for binding analysis to nucleotide-binding domain (NBD2) of P-Glycoprotein was determined

T1 sequence (P21447 whole entry, the tested form may be a part): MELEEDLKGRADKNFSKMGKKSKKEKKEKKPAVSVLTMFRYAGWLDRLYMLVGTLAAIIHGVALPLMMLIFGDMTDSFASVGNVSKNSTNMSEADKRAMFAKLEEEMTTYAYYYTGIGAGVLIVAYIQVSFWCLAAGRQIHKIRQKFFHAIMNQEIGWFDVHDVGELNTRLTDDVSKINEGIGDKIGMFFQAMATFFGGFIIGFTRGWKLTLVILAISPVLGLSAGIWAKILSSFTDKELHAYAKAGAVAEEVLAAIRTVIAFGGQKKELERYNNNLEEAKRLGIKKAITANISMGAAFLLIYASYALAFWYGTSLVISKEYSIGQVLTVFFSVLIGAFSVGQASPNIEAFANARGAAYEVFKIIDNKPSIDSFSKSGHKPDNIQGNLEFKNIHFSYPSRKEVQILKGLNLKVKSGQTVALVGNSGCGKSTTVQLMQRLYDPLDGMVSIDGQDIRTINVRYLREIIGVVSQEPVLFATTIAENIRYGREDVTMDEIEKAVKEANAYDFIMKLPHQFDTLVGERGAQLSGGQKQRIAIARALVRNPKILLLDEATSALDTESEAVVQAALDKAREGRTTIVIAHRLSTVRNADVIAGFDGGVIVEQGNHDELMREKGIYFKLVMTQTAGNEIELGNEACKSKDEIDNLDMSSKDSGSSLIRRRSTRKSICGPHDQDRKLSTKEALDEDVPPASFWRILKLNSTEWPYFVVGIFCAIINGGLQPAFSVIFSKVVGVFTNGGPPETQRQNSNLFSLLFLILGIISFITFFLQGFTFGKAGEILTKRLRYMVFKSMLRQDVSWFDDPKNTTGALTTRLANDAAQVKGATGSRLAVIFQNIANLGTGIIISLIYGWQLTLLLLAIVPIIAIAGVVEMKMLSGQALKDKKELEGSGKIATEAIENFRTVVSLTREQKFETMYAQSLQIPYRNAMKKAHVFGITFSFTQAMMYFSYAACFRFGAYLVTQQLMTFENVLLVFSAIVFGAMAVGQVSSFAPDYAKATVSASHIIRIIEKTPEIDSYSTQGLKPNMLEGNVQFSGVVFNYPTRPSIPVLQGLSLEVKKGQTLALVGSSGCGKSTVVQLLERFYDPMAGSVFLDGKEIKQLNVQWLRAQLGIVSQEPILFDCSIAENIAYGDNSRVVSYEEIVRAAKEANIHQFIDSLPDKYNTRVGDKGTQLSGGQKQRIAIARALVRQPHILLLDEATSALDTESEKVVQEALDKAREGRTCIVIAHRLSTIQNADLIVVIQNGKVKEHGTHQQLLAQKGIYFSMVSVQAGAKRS

SMILES: CCCCCCCCc1ccc(-c2oc3cc(O)cc(O)c3c(=O)c2O)cc1
- Kd [1]: 0.057 µM
- Delta Fmax [2]: 62.1%

SMILES: O=c1c(O)c(-c2ccc(F)cc2)oc2cc(O)cc(O)c12
- Kd [1]: 6.8 µM
- Delta Fmax [2]: 91.6%

SMILES: O=c1c(O)c(-c2ccc(I)cc2)oc2cc(O)cc(O)c12
- Kd [1]: 1.06 µM
- Delta Fmax [2]: 95.5%

SMILES: O=c1c(O)c(-c2ccccc2)oc2cc(O)cc(O)c12 [GALANGIN]
- Kd [1]: 5.9 µM
- Delta Fmax [2]: 95%

SMILES: O=c1c(O)c(-c2ccc(O)cc2)oc2cc(O)cc(O)c12 [KAEMPFEROL]
- Kd [1]: 6.7 µM
- Delta Fmax [2]: 97.6%

More lines, in order of falling Kd [1], values ahead:

- Kd [1]: 5 µM
- Delta Fmax [2]: 96.7%
SMILES: COc1ccc(-c2oc3cc(O)cc(O)c3c(=O)c2O)cc1 [KAEMPFERIDE]

- Kd [1]: 4 µM
- Delta Fmax [2]: 85.3%
SMILES: O=c1c(O)c(-c2ccc(Cl)cc2Cl)oc2cc(O)cc(O)c12

- Kd [1]: 2 µM
- Delta Fmax [2]: 84.6%
SMILES: O=c1c(O)c(-c2ccc(C(c3ccccc3)c3ccccc3)cc2)oc2cc(O)cc(O)c12
